Test [1] deals with T1, AChE (Homo sapiens, UniProt P22303).
T1 construct: purchased Sigma-Aldrich
As to the kind of experiment: biochemical. The note with it: five concentrations 256 μM to 16 μM, triplicate, pH 8.0 buffer.
Procedure: AChE inhibition was assessed on a Varioskan Lux 96-well plate reader. […] The IC50 values were determined using TableCurve 2Dv4 software.

Test [2] concerns the target T2, BACE1 (Homo sapiens, UniProt P56817).
T2 construct: purchased Beyotime Biotech
The test can be described thus: BACE1 Inhibitor Screening Kit (FRET substrate). Particulars: 200 μM compound. The format is biochemical.
Procedure: Briefly, BACE1 was incubated with various concentrations of compounds for 5 min at 37 °C in a black 96-well plate, followed by adding a specific fluorescence resonance energy transfer (FRET) substrate into the reaction mixture. […] The inhibitory percentage of BACE1 activity was calculated as following: I(%) = (ΔFIcontrol − ΔFIcompound) × 100/ΔFIcontrol, in which ΔFI denotes the change of fluorescent intensity per min. The inhibitory activity of compounds was initially screened at a fixed concentration of 200 μM.

Each structure is given as a SMILES string.

T2 sequence (P56817 46-501, species assumed): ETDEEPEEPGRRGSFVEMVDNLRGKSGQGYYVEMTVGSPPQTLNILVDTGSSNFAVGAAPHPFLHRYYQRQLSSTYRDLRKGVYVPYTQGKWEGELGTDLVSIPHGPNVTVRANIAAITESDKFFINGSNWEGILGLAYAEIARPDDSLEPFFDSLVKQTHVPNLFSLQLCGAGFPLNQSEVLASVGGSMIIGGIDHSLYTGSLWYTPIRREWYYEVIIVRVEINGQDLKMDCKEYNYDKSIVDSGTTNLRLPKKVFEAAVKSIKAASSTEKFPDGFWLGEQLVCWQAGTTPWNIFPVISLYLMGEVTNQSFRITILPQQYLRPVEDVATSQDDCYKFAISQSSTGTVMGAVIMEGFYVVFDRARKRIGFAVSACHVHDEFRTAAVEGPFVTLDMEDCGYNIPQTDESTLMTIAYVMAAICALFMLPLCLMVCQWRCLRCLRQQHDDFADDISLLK
T1 sequence (P22303 32-614): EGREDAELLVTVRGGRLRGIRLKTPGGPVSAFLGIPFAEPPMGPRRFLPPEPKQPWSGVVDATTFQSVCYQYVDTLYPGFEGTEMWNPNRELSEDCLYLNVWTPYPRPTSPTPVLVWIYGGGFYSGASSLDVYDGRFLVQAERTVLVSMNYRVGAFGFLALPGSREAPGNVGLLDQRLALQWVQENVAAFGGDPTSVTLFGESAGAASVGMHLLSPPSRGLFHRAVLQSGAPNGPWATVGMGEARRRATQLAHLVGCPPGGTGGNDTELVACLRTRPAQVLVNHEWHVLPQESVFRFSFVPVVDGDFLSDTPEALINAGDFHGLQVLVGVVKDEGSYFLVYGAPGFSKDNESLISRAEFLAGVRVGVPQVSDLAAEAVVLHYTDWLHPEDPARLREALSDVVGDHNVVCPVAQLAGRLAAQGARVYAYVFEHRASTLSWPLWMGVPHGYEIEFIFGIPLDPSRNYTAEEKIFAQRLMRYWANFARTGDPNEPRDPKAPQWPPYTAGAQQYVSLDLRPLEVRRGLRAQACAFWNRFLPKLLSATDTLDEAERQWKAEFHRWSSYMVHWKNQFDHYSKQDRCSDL

`Cn1c(=O)c2c(ncn2Cc2nnn(CCCCC(=O)Nc3ccc(I)cc3F)n2)n(C)c1=O` [Compound 12]: the IC50 in test [1] turned out to be 15.68 ± 0.06 µM. Further, in test [2], the inhibition at 200 µM stood at 18.2 ± 3.9%.
The matching figures for `Cn1c(=O)c2c(ncn2Cc2nnn(CCCCCC(=O)Nc3cccc(Cl)c3)n2)n(C)c1=O` [Compound 14]: 153 ± 45 µM and -2.01 ± 0.83%.
The matching figures for `Cn1c(=O)c2c(ncn2Cc2nnn(CCCCCC(=O)Oc3ccccc3)n2)n(C)c1=O` [Compound 18]: 94.4 ± 8.27 µM and 0.07 ± 3.57%.
The like results for `Cn1c(=O)c2c(ncn2Cc2nnnn2CCCCCCC(=O)Nc2ccc(Br)cc2)n(C)c1=O` [Compound 25] were, in that order, 70.3 ± 0.1 µM and -0.48 ± 0.76%.
As to `Cn1c(=O)c2c(ncn2Cc2nnn(CCCCCC(=O)Nc3ccc(Br)cc3)n2)n(C)c1=O` [Compound 15], the IC50 in test [1] is 84.1 ± 20.2 µM. Also, the inhibition at 200 µM in test [2] was found to be 8.94 ± 1.45%.
The like results for `Cn1c(=O)c2c(ncn2Cc2nnn(CCCCCCC(=O)Nc3ccc(Br)cc3)n2)n(C)c1=O` [Compound 22] were, in that order, 63.5 ± 2.48 µM and 1.56 ± 3.43%.
In test [1], `Cn1c(=O)c2c(ncn2Cc2nnnn2CCCCCCC(=O)Nc2ccc(I)cc2F)n(C)c1=O` [Compound 27] came in with an IC50 of 143 ± 23.1 µM. The inhibition at 200 µM in test [2] came to 7.69 ± 0.86%.
The compound `Cn1c(=O)c2c(ncn2Cc2nnn(CCCCCCC(=O)Nc3cccc(Cl)c3)n2)n(C)c1=O` [Compound 20] registered an IC50 in test [1] of 221 ± 37.7 µM. Further, the inhibition at 200 µM in test [2] is 10.7 ± 0.54%.
The like results for `COc1ccc(OC(=O)CCCCCn2nnc(Cn3cnc4c3c(=O)n(C)c(=O)n4C)n2)cc1` [Compound 19] were, in that order, 267 ± 30.4 µM and -1.23 ± 0.35%.
The matching figures for `COc1ccc(OC(=O)CCCCCCn2nnc(Cn3cnc4c3c(=O)n(C)c(=O)n4C)n2)cc1` [Compound 24]: 106 ± 25.7 µM and 0.74 ± 0.17%.
`Cn1c(=O)c2c(ncn2Cc2nnn(CCCCCCC(=O)Nc3ccc(Cl)cc3)n2)n(C)c1=O` [Compound 21] yielded an IC50 in test [1] of 126 ± 22.4 µM. In addition, the inhibition at 200 µM in test [2] amounted to 12.2 ± 0.47%.
The compound `Cn1c(=O)c2c(ncn2Cc2nnn(CCCCCC(=O)Nc3ccc(F)c(Cl)c3)n2)n(C)c1=O` [Compound 16] yielded an IC50 in test [1] of 115 ± 10.6 µM. Further, in test [2], the inhibition at 200 µM was -1.54 ± 1.19%.
The like results for `Cn1c(=O)c2c(ncn2Cc2nnn(CCCCC(=O)Nc3ccccc3)n2)n(C)c1=O` [Compound 11] were, in that order, 110 ± 17.5 µM and -0.32 ± 2.05%.
The like results for `Cn1c(=O)c2c(ncn2Cc2nnn(CCCCCCC(=O)Nc3ccc(F)c(Cl)c3)n2)n(C)c1=O` [Compound 23] were, in that order, 110 ± 17.2 µM and 12.6 ± 0.45%.
The matching figures for `Cn1c(=O)c2c(ncn2Cc2nnnn2CCCCCCC(=O)Nc2ccc(F)c(Cl)c2)n(C)c1=O` [Compound 26]: 55.4 ± 18.6 µM and 8.89 ± 0.49%.
On to `COc1ccc(OC(=O)CCCCn2nnc(Cn3cnc4c3c(=O)n(C)c(=O)n4C)n2)cc1` [Compound 13], for which the IC50 in test [1] was 303 ± 34.1 µM. In addition, the inhibition at 200 µM in test [2] turned out to be 1.4 ± 0.03%.
The matching figures for `Cn1c(=O)c2c(ncn2Cc2nnn(CCCCCC(=O)Nc3ccc(I)cc3F)n2)n(C)c1=O` [Compound 17]: 105 ± 12.8 µM and 18.7 ± 2.26%.

The values are drawn from PMC11877286, “Discovery of novel theophylline derivatives bearing tetrazole scaffold for the treatment of Alzheimer's disease” (RSC Advances, 2025).
